Patent US20250230193A1, “CYCLIC COMPOUND HAVING SELECTIVE KRAS INHIBITORY EFFECT ON HRAS AND NRAS” (CHUGAI SEIYAKU KABUSHIKI KAISHA, priority 2022, published 2025)
Where a SMILES comes first, the peptide text is derived from it. Bridges are numbered along the chain shown (N, C = ends). [ ]: non-standard residue; d: D form. The star is where a group is joined. hPhe(3-Cl-4-CF3) = N[C@@H](CCc1ccc(C(F)(F)F)c(Cl)c1)C(=O)O; NPrPhe(4-CF3) = CCCN[C@@H](Cc1ccc(C(F)(F)F)cc1)C(=O)O; NEtPhe(4-Me) = CCN[C@@H](Cc1ccc(C)cc1)C(=O)O; NMeGly(cPent) = CN[C@H](C(=O)O)C1CCCC1; NMeD = CN[C@@H](CC(=O)O)C(=O)O; NMeL = CN[C@@H](CC(C)C)C(=O)O; Morpholide = C1CN(*)CCO1; Ac5c = NC1(C(=O)O)CCCC1; Ac4c = NC1(C(=O)O)CCC1; Sar = CNCC(=O)O

Key:
[1] = target: GDP-bound HRAS wild-type protein (Homo sapiens, UniProt P01112); experiment: Binding to HRAS by surface plasmon resonance (SPR), Single Cycle Kinetics; settings: SPR
[2] = target: GDP-bound NRAS wild-type protein (Homo sapiens, UniProt P01111); experiment: Binding to NRAS by surface plasmon resonance (SPR), Single Cycle Kinetics; settings: SPR
[3] = GDP-bound HRAS wild-type vs GDP-bound KRAS wild-type
[4] = GDP-bound NRAS wild-type vs GDP-bound KRAS wild-type

Sequence of GDP-bound HRAS wild-type protein (P01112 whole entry): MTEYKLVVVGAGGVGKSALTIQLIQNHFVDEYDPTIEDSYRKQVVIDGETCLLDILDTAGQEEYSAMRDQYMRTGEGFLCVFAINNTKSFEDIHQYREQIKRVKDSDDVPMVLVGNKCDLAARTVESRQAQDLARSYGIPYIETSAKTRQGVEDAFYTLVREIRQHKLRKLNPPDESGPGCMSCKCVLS
Sequence of GDP-bound NRAS wild-type protein (P01111 whole entry): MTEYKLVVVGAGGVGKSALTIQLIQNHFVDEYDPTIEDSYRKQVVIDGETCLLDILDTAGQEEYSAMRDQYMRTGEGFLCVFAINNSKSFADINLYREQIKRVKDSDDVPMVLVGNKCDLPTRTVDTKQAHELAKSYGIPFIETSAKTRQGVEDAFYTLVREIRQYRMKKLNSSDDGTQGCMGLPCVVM

Question: How did the “HRAS/KRAS (ratio of KD for GDP-bound HRAS wild-type to KD for KRAS)” value ([1]; KD ratio HRAS/KRAS) turn out when CC[C@H](C)[C@@H]1NC(=O)[C@H](CC(C)C)N(C)C(=O)C[C@@H](C(=O)N2CCOCC2)N(C)C(=O)[C@H](C2CCCC2)N(C)C(=O)C2(CCCC2)NC(=O)[C@@H]2CCCN2C(=O)[C@H](CCc2ccc(C(F)(F)F)c(Cl)c2)NC(=O)CN(C)C(=O)[C@H](Cc2ccc(C)cc2)N(CC)C(=O)CN(C)C(=O)CN(C)C1=O [PP0022] ([NMeL]I[Sar][Sar][NEtPhe(4-Me)][Sar][hPhe(3-Cl-4-CF3)]P[Ac5c][NMeGly(cPent)][NMeD]-Morpholide; lactam N-11) was run?
Answer: The value was “C (A compound having a KD ratio of 0.1 or more and less than 3 is denoted as C)”.

Question: And the “NRAS/KRAS (ratio of KD for GDP-bound NRAS wild-type to KD for KRAS)” value ([2]; KD ratio NRAS/KRAS)?
Answer: The value was “B (a compound having 3 or more and less than 10 is denoted as B)”.

Question: For CC[C@H](C)[C@@H]1NC(=O)[C@H](CC(C)C)N(C)C(=O)C[C@@H](C(=O)N2CCOCC2)N(C)C(=O)[C@H](C2CCC2)N(C)C(=O)C2(CCCC2)NC(=O)[C@@H]2CCCN2C(=O)[C@H](CCc2cc(F)c(C(F)(F)F)c(F)c2)NC(=O)CN(C)C(=O)[C@H](Cc2ccc(C(F)(F)F)cc2)N2CCCCC[C@@H](C2=O)N(C)C(=O)CN(C)C1=O [PP0504], which “HRAS/KRAS (ratio of KD value with respect to GDP-bound HRAS wild-type protein to KD value with respect to KRAS)” value ([1]; KD ratio HRAS/KRAS) is on record?
Answer: The value was “B (a compound having 3 or more and less than 10 is denoted as B)”.

Question: What about the “NRAS/KRAS (ratio of KD value with respect to GDP-bound NRAS wild-type protein to KD value with respect to KRAS)” value ([2]; KD ratio NRAS/KRAS) of the same molecule?
Answer: The value was “B (a compound having 3 or more and less than 10 is denoted as B)”.

Question: How did the “HRAS/KRAS (ratio of KD value for HRAS to KD value for KRAS)” value [1, 3] turn out when CCCOC[C@H]1C(=O)N[C@@H]([C@@H](C)CC)C(=O)N(C)CC(=O)N(C)[C@H]2C/C=C\CCN(C2=O)[C@@H](Cc2ccc(C(F)(F)F)cc2)C(=O)N(C)CC(=O)N[C@@H](CCc2cc(F)c(C(F)(F)F)c(F)c2)C(=O)N2C[C@H](F)C[C@H]2C(=O)NC2(CC(C)(C)C2)C(=O)N(C)[C@@H](C2CCCC2)C(=O)N(C)[C@H](C(=O)N(C)CC)CC(=O)N1C [PP1697] was run?
Answer: The value was “A (a compound having 10 or more and less than 20 is denoted as A)”.

Question: And the “NRAS/KRAS (ratio of KD value for NRAS to KD value for KRAS)” value [2, 4]?
Answer: Its value is “A (a compound having 10 or more and less than 20 is denoted as A)”.

Question: For C#CC[C@H]1C(=O)N[C@@H]([C@@H](C)CC)C(=O)N(C)CC(=O)N(C)[C@H]2C/C=C\CCN(C2=O)[C@@H](Cc2ccc(C(F)(F)F)cc2)C(=O)N(C)CC(=O)N[C@@H](CCc2cc(F)c(C(F)(F)F)c(F)c2)C(=O)N2C[C@H](F)C[C@H]2C(=O)NC2(CC(C)(C)C2)C(=O)N(C)[C@@H](C2CCCC2)C(=O)N(C)[C@H](C(=O)N(C)CC)CC(=O)N1C [PP1691], which “HRAS/KRAS (ratio of KD value for HRAS to KD value for KRAS)” value [1, 3] is on record?
Answer: The value was “A (a compound having 10 or more and less than 20 is denoted as A)”.

Question: What about the “NRAS/KRAS (ratio of KD value for NRAS to KD value for KRAS)” value [2, 4] of the same molecule?
Answer: Its value is “A (a compound having 10 or more and less than 20 is denoted as A)”.

Question: With CCO[C@@H]1C[C@H]2C(=O)NC3(CC(C)(C)C3)C(=O)N(C)[C@@H](C(CC)CC)C(=O)N(C)[C@H](C(=O)N(C)C)CC(=O)N(C)[C@@H](CC3CC3)C(=O)N[C@@H]([C@@H](C)CC)C(=O)N(C)CC(=O)N(C)[C@H]3C/C=C\CCN(C3=O)[C@@H](CC3CCC(F)(F)CC3)C(=O)N(C)CC(=O)N[C@@H](CCc3ccc(C(F)(F)F)c(OC)c3)C(=O)N2C1 [PP2480] as the molecule, how does the “HRAS/KRAS (ratio of KD value with respect to HRAS to KD value with respect to KRAS)” value [1, 3] read?
Answer: Its value is “A (a compound having 10 or more and less than 20 is denoted as A)”.

Question: What about the “NRAS/KRAS (ratio of KD value with respect to NRAS to KD value with respect to KRAS)” value [2, 4] of the same molecule?
Answer: The value was “A (a compound having 10 or more and less than 20 is denoted as A)”.

Question: With CC[C@H](C)[C@@H]1NC(=O)[C@H](CC(C)C)N(C)C(=O)C[C@@H](C(=O)N2CCOCC2)N(C)C(=O)[C@H](C2CCCC2)N(C)C(=O)C2(CCCC2)NC(=O)[C@@H]2CCCN2C(=O)[C@H](CCc2cc(F)c(C(F)(F)F)c(F)c2)NC(=O)CN(C)C(=O)[C@H](Cc2ccc(C(F)(F)F)cc2)N2CCCCC[C@@H](C2=O)N(C)C(=O)CN(C)C1=O [PP0490] as the molecule, how does the “HRAS/KRAS (ratio of KD value with respect to GDP-bound HRAS wild-type protein to KD value with respect to KRAS)” value ([1]; KD ratio HRAS/KRAS) read?
Answer: Its value is “B (a compound having 3 or more and less than 10 is denoted as B)”.

Question: What about the “NRAS/KRAS (ratio of KD value with respect to GDP-bound NRAS wild-type protein to KD value with respect to KRAS)” value ([2]; KD ratio NRAS/KRAS) of the same molecule?
Answer: Its value is “B (a compound having 3 or more and less than 10 is denoted as B)”.

Question: Which results are given for CCCN1C(=O)CN(C)C(=O)CN(C)C(=O)[C@H]([C@@H](C)CC)NC(=O)[C@H](CC(C)C)N(C)C(=O)C[C@@H](C(=O)N(C)C)N(C)C(=O)[C@H](C2CCCC2)N(C)C(=O)C2(CCC2)NC(=O)[C@@H]2CCCN2C(=O)[C@H](CCc2ccc(C(F)(F)F)c(Cl)c2)NC(=O)CN(C)C(=O)[C@@H]1Cc1ccc(C(F)(F)F)cc1 [PP0412] ([NMeL]I[Sar][Sar][NPrPhe(4-CF3)][Sar][hPhe(3-Cl-4-CF3)]P[Ac4c][NMeGly(cPent)][NMeD]-NMe2; lactam N-11)?
Answer: HRAS/KRAS (ratio of KD value with respect to GDP-bound HRAS wild-type protein to KD value with respect to KRAS) ([1]; KD ratio HRAS/KRAS): C (A compound having a KD ratio of 0.1 or more and less than 3 is denoted as C); NRAS/KRAS (ratio of KD value with respect to GDP-bound NRAS wild-type protein to KD value with respect to KRAS) ([2]; KD ratio NRAS/KRAS): B (a compound having 3 or more and less than 10 is denoted as B)
